According to patent US20100035756A1, “TRIAZOLOPHYRIDINE DERIVATIVES AS HERBICIDES” (SYNGENTA LIMITED, priority 2006, published 2010):

Assays:
Format in all cases: in vivo
Digitaria sanguinalis = experiment: Microscreen (pre-emergence), Example B3; details: preemergent application, 250 g/ha, evaluated 8 days later, 100%=total damage
Amaranthus retroflexus = experiment: Microscreen (pre-emergence), Example B3; details: preemergent application, 250 g/ha, evaluated 8 days later, 100%=total damage
[1] = test system: Monocotyledonous and dicotyledonous test plants; experiment: Herbicidal action after emergence of the plants (post-emergence herbicidal action), Example B2; details: postemergent application, 125 g/ha, 2- to 3-leaf stage, evaluated after 2-3 weeks, 100%=total damage
Summary of the method: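 Sprayed at 2- to 3-leaf stage as aqueous suspension (wettable powder) or emulsion (emulsifiable concentrate) at 125 g/ha; plants grown on in greenhouse. Damage scored after 2–3 weeks (100% = total damage, 0% = none).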

Stellaria media = experiment: Microscreen (pre-emergence), Example B3; details: preemergent application, 250 g/ha, evaluated 8 days later, 100%=total damage
Nasturtium officinale = experiment: Microscreen (pre-emergence), Example B3; details: preemergent application, 250 g/ha, evaluated 8 days later, 100%=total damage
Agrostis tenuis = experiment: Microscreen (pre-emergence), Example B3; details: preemergent application, 250 g/ha, evaluated 8 days later, 100%=total damage
Solanum nigrum = experiment: Microscreen (pre-emergence), Example B3; details: preemergent application, 250 g/ha, evaluated 8 days later, 100%=total damage
[2] = test system: Monocotyledonous and dicotyledonous test plants; experiment: Herbicidal action prior to emergence of the plants (pre-emergence action), Example B1; details: preemergence application, 250 g/ha, evaluated after 4 weeks, 100%=total damage, 0%=no damage
Summary of the method: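 Monocot and dicot species were sown in standard soil and sprayed pre-emergence, right after sowing, at 250 g/ha as an aqueous suspension or emulsion. Plants were grown in a greenhouse for 4 weeks. Damage was scored from 0% (none) to 100% (total).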

Setaria italica = experiment: Microscreen (pre-emergence), Example B3; details: preemergent application, 250 g/ha, evaluated 8 days later, 100%=total damage

Cc1nnc2c(C(=O)C3=C(O)C(C)(C)C(=O)C(C)(C)C3=O)ccc(C(F)(F)F)n12 [Compound 5.3]
herbicidal damage, Digitaria (Digitaria sanguinalis): 100%
herbicidal damage, Amaranthus (Amaranthus retroflexus): 100%
herbicidal damage, ABUTH ([1]; ABUTH): 80%
herbicidal damage, AMARE ([1]; AMARE): 70%
herbicidal damage, CHEAL ([1]; CHEAL): 80%
herbicidal damage, DIGSA ([1]; DIGSA): 50%
herbicidal damage, SETFA ([1]; SETFA): 50%
herbicidal damage, SINAR ([1]; SINAR): 80%
herbicidal damage, VERPE ([1]; VERPE): 90%
herbicidal damage, XANST ([1]; XANST): 90%
herbicidal damage, Stellaria (Stellaria media): 90%
herbicidal damage, Nasturtium (Nasturtium officinale): 100%
herbicidal damage, Agrostis (Agrostis tenuis): 50%
herbicidal damage, Solanum (Solanum nigrum): 100%
herbicidal damage, ABUTH ([2]; ABUTH): 100%
herbicidal damage, AMARE ([2]; AMARE): 100%
herbicidal damage, BRAPL ([2]; BRAPL): 70%
herbicidal damage, DIGSA ([2]; DIGSA): 100%
herbicidal damage, ECHCG ([2]; ECHCG): 100%
herbicidal damage, SETFA ([2]; SETFA): 60%
herbicidal damage, STEME ([2]; STEME): 100%
herbicidal damage, VERPE ([2]; VERPE): 100%
herbicidal damage, Setaria (Setaria italica): 50%
